What was measured:
Assay type in all cases: cell-based
all the tested strains = experiment: Comparative impedimetric MIC, all tested strains of Table 4; conditions: summary of Table 4
Experimental: (§1) The minimum inhibition concentration (MIC) of various-substances was determined as described in Example 1.
(§2) The following substances were tested: protamine (A), protamine sulphate (B), a peroxidase enzyme system (i.e. lactoperoxidase/glucoseoxidase (C)), subtilisin A (D), polyarginine (E) having an average molecular weight of about 6 kD and lysozyme (F) (150 000 units/mg; Johansen, C. et al., 1994).

Escherichia coli 0157:H7 = experiment: Impedimetric MIC / detection time, growing cells in TSB (Bactometer); conditions: Table 4, strain printed as Escherichia coli; determined as in Example 1 (inhibition of at least 100 hours); n.e. = not effective
Experimental: (§3) Volumes (1.0 ml) of TSB medium were added to Bactometer® wells. Protamine solutions (0.1 ml) were transferred to the wells which were sealed, connected to the Bactometer B123-2 (bioMérieux UK ltd., UK) and incubated at 25°C until a significant detectable increase in the electrical conductivity of the medium was registered and the detection time (DT) was recorded (maximum 100 h). Detection usually occurs when the cell concentration reaches 10^6-10^7 cfu/ml. For the Gram-positive strains the capacitance signal was monitored, while change in conductance was used for Gram-negative strains.
(§4) was measured in the Bactometer modules. The wells (containing 1 ml TSB and 0.1 ml protamine solution) were inoculated with 0.1 ml from a 10^-4 dilution of an inoculum culture, giving a final cell concentration in the well of approximately 10^3 cfu/ml. The concentration of protamine varied from 1 to 4000 µg/ml depending on the sensitivity of the strain investigated.
(§5) Minimum Inhibition Concentration (MIC) was determined as the lowest concentration of protamine resulting in absence of a DT.
(§6) When no DT was measured, the lethal/inhibitory effect on the cells were tested by plating the total well volume.
as §1, §2

Staphylococcus aureus = experiment: as above; conditions: Table 4, determined as in Example 1 (inhibition of at least 100 hours); n.e. = not effective
Experimental: as §3, §4, §5, §6, §1, §2

Vibrio paraheamolyticus = experiment: as above; conditions: Table 4, determined as in Example 1 (inhibition of at least 100 hours); n.e. = not effective
Experimental: as §3, §4, §5, §6, §1, §2

Pseudomonas aeruginosa = experiment: as above; parameters: key: n.e.: not effective; conditions: Table 4, strain printed as Pseudomonas aeroginosa; determined as in Example 1 (inhibition of at least 100 hours); n.e. = not effective
Experimental: as §3, §4, §5, §6
(§7) The minimum inhibition concentration (MIC) of various-substances was determined as described in Example 1. […]

Listeria monocytogenes = experiment: as above; conditions: Table 4, determined as in Example 1 (inhibition of at least 100 hours); n.e. = not effective
Experimental: as §3
(§8) was measured in the Bactometer modules. […]
as §5, §6, §7
(§9) Further, the influence of cell concentration on the anti-bacterial effect of protamine was tested using the materials and methods described in Example 1, i.e.the correlation between cell concentration and protamine concentration has been measured by the impedimetric assay.

Shewanella putrefaciens = experiment: as above; conditions: Table 4, determined as in Example 1 (inhibition of at least 100 hours); n.e. = not effective
Experimental: as §3, §8, §5, §6, §7, §9

Pseudomonas fluorescens [1] = experiment: as above; parameters: key: n.e.: not effective; conditions: Table 4, determined as in Example 1 (inhibition of at least 100 hours); n.e. = not effective
Experimental: as §3, §4, §5, §6, §7

Pseudomonas fluorescens [2] = experiment: Synergy growth inhibition experiments, impedimetric, factorial design; conditions: each alone: protamine 250 µg/ml, polylysine 500 µg/ml, lactoperoxidase 2 U/ml, glucose oxidase 2 U/ml
Experimental: Impedimetric measurements carried out as described in example 1 have shown an synergistic effect between basic peptides as protamine, polyarginine or polylysine and lysozyme and/or glucose oxidase and/or the lactoperoxidase enzyme system depending on pH and NaCl concentration.
Growth inhibition experiments were conducted, wherein synergistic and additional effects were determined by mixing compounds in low concentrations not having any activity on their own and using a factoral design. The effects were measured as growth inhibition or a 100% bacteriocidal effect with a total kill of the inoculum.

Substance	effectiveness for inhibiting the tested strains (all the tested strains)	Minimum Inhibitory Concentration (Escherichia coli 0157:H7)	Minimum Inhibitory Concentration (Staphylococcus aureus)	Minimum Inhibitory Concentration (Vibrio paraheamolyticus)	Minimum Inhibitory Concentration (Pseudomonas aeruginosa)	Minimum Inhibitory Concentration (Listeria monocytogenes)	Minimum Inhibitory Concentration (Shewanella putrefaciens)	Minimum Inhibitory Concentration (Pseudomonas fluorescens [1])	growth inhibition, compound alone (Pseudomonas fluorescens [2])
polyarginine	effective for inhibiting all strains but Pseudomonas spp.	1500 µg/mL	1500 µg/mL	2000 µg/mL	n.e.	2000 µg/mL	1500 µg/mL	n.e.	–
polylysine	–	–	–	–	–	–	–	–	not inhibited
